In PubChem BioAssay AID489027 (Sanford-Burnham Center for Chemical Genomics, 2010):
Calls of active or inactive are those of the source. The rule behind the calls is not given here.

The compounds below were run against UPR counterscreen luciferase reporter, luminescence (assay: activators in UPR counterscreen luciferase reporter, dose response, counter-screen for adaptive UPR activator project, cell-based, luminescence (AID 489027)).

| SMILES | EC50 |
| --- | --- |
| CC(C)=CCCC1(C)C=Cc2c(ccc3c2[nH]c2cc(O)c(C)cc23)O1 (centres undefined) | 19.6 µM |
| Cc1ccc(NS(=O)(=O)c2cc([N+](=O)[O-])ccc2N/N=C/c2sc(N3CCOCC3)nc2-c2ccccc2)c(C)c1 | > 80 µM (inactive) |
| Cn1c(Cl)cnc1C1CC(=O)c2cc(Cl)ccc2O1 (centres undefined) | 12 µM |
| COc1ccc(NC(=O)C(=O)N/N=C\c2ccc(CNC(=O)C(=O)Nc3ccc(C)c(C)c3)o2)c(OC)c1 | 4.19 µM |
| CCOC(=O)c1cc(-c2ccccc2)sc1NC(=O)c1ccc(OC)cc1 | inactive |
| Cc1ccc2c(n1)sc1c(-c3ccc(Br)cc3)c(C#N)c(N)nc12 | > 80 µM (inactive) |
| Cc1ccc(-c2ccnc(-c3ccc(O)cc3)n2)cc1 | > 80 µM (inactive) |
| Cc1ccc(C)c(N=Cc2c(O)c3ccccc3oc2=O)c1 | inactive |
| C[C@@H]1C[C@H]2[C@@H]3CCC4=CC(=O)C=C[C@]4(C)[C@@]3(Cl)[C@@H](O)C[C@]2(C)[C@@]1(OC(=O)c1ccco1)C(=O)CCl | > 80 µM (inactive) |
| CCCn1c(Nc2nc3ccccc3n2C)nc2ccccc21 | inactive |
| O=C(Nc1nc(-c2ccc(F)c(F)c2)cs1)Nc1ccc(F)cc1F | 13.4 µM |
| C#CCn1c(=NC(=O)c2ccc(Br)s2)sc2cccc(OC)c21 | > 80 µM (inactive) |
| CCOc1ccc(C(=O)Nc2cc(-c3nc4ccccc4[nH]3)ccc2Cl)cc1[N+](=O)[O-] | 17.7 µM |
| Cc1ccc(Cl)cc1N1CCN(Cc2nc3c(c(=O)[nH]c(=O)n3C)n2CCc2ccccc2)CC1 | 16.7 µM |
| CCc1cccc(CC)c1NC(=O)/C(C#N)=C/c1ccccc1C(F)(F)F | > 80 µM (inactive) |
| C=CCOc1ccc2cccc(/C=N/NC(=O)c3cc4cc([N+](=O)[O-])ccc4s3)c2c1 | inactive |
| COc1ccc(/C=c2\s/c(=C(/C#N)C(=O)NCc3ccco3)n(-c3ccccc3)c2=O)cc1 | inactive |
| O=C(Nc1ccc(Br)cc1)c1cc(-c2ccncc2)nc2ccccc12 | 12.7 µM |
| CCOC(=O)c1nnc(-c2ccccc2)nc1Sc1ccccc1Cl | 14.3 µM |
| COc1ccc(OC)c(-c2nnc3n2N=C(c2ccc(OC)c(OCC4CC4)c2)CS3)c1 | > 80 µM (inactive) |
| O=C1NC(=O)N(Cc2ccccc2)C(=O)/C1=C\c1ccco1 | inactive |
| COc1ccc2oc(-c3ccc(C)c(NC(=O)c4ccc(N5CCOCC5)c([N+](=O)[O-])c4)c3)nc2c1 | > 80 µM (inactive) |
| CCOC(=O)c1nnc(-c2ccc(C)cc2)nc1Sc1ccccc1Cl | 14.8 µM |
| Cc1cc(NC(=O)CSc2ccc(-c3nc4cc(C)c(C)cc4[nH]3)cn2)no1 | inactive |

| SMILES | EC50 |
| --- | --- |
| CCOC(=O)Cc1csc(/N=C/c2c(O)n(-c3ccc(C)c(C)c3)c(=O)c3ccccc23)n1 | 7.15 µM |
| COc1ccc(-c2ccc(C#N)c(SCC(=O)Nc3sc4c(c3C#N)CCC4)n2)cc1OC | > 80 µM (inactive) |
| O=c1cc(CN2CCN(c3ccccc3)CC2)c2cc(O)c(-c3ccccc3)cc2o1 | 7 µM |
| CCCc1nc2ccccc2c(=O)n1/N=C/c1ccc(O)c(O)c1 | 15 µM |
| O=C(Cn1c2ccccc2c(=O)c2cc([N+](=O)[O-])ccc21)Nc1ccccc1Cl | inactive |
| Cc1nc(Nc2nc(-c3ccccc3)cc(=O)[nH]2)nc2ccccc12 | > 80 µM (inactive) |
| COc1ccc(NC(=O)c2cc3c(=O)n(C)c4ccccc4c3n2C)cc1Cl | > 80 µM (inactive) |
| Cc1ccc2nsnc2c1NC(=O)c1ccc(-c2cc(Cl)ccc2Cl)o1 | > 80 µM (inactive) |
| Cc1cnc(NC(=O)c2cc3c(C)nn(Cc4ccccc4Cl)c3s2)s1 | > 80 µM (inactive) |
| COc1ccc(-n2c(C)cc(C(=O)CCl)c2C)cc1 | 5.8 µM |
| N=c1n(CC(=O)c2ccc([N+](=O)[O-])cc2)c2ccccc2n1Cc1ccc(Cl)cc1 | 7.87 µM |
| CC(C)(C)C(=O)NC(=S)NNC(=O)c1ccc(-c2ccccc2)cc1 | 8.05 µM |
| Brc1cc2c(cc1/C=N/Nc1nc3ccccc3s1)OCO2 | > 80 µM (inactive) |
| Cn1nc(C(F)(F)F)c(/C=N/OC(=O)c2ccccc2)c1SCc1ccccc1Cl | inactive |
| O=C(Cn1c2ccc(F)cc2c2nc3n(c(=O)c21)CCS3)Nc1ccc(Cl)cc1F | > 80 µM (inactive) |
| COc1ccc2cc1Oc1ccc(cc1)C[C@H]1c3c(cc(OC)c4c3Oc3c(ccc5c3[C@H](C2)N(C)CC5)O4)CCN1C | 7.91 µM |
| COc1ccc(C(=O)/C=C/c2cccs2)c(OC(=O)c2cccc([N+](=O)[O-])c2)c1 | inactive |
| CC(NCC(O)COCCC12CC3CC(CC(C3)C1)C2)c1ccccc1 (centres undefined) | > 80 µM (inactive) |
| Cc1cc(NC(=O)CSc2nc3cc(Cl)ccc3c(=O)n2Cc2ccco2)no1 | > 80 µM (inactive) |
| Cc1cc(C)c(NC(=O)CSc2nc(COc3ccccc3)nc3ccccc23)c(C)c1 | inactive |
| CCCCCCCCCCOC(=O)Cn1c(COc2ccc(OC)cc2)[n+](C)c2ccccc21 | 18.8 µM |
| CCNC(=O)c1c(NC(=O)c2cc(-c3cc(C)ccc3O)n[nH]2)sc2c1CCCC2 | > 80 µM (inactive) |
| CC(C)c1ccc(C2C3=C(COC3=O)Nc3cc4c(cc32)OCO4)cc1 (centres undefined) | inactive |
| CC(C)=CCCC1(C)C=Cc2c(c(C)cc3c2[nH]c2cc(O)ccc23)O1 (centres undefined) | inactive |

| SMILES | EC50 |
| --- | --- |
| CC(C)N(C(=O)[C@H]1C[C@H](CC(=O)NCc2cccc(C(F)(F)F)c2)C(=O)N2CCc3c([nH]c4ccc(Cl)cc34)[C@]12C)C(C)C | inactive |
| Cc1cccc(N2CCN(C(=S)Nc3ccc4nc(N5CCN(C)CC5)cc(C)c4c3)CC2C)c1 (centres undefined) | > 80 µM (inactive) |
| Nc1nc(Nc2cccc(F)c2)nc2ccccc12 | inactive |
| O=S(=O)(c1ccc2nc(-c3ccccc3)[nH]c2c1)N1CCN(c2ccc(Cl)cc2)CC1 | > 80 µM (inactive) |
| Cc1ccnc(N/C=C(\C#N)c2nc(-c3cccc(Br)c3)cs2)c1 | 19 µM |
| Oc1ccc(-c2nc3ccc4ccccc4c3c3c2CCC3)cc1O | 18 µM |
| Cc1c(C(=O)Nc2nccs2)oc2ccc(Br)cc12 | > 80 µM (inactive) |
| Cc1ccc(-n2nc3c(N4CCC(C(=O)NCCc5cccs5)CC4)nnc(C)c3c2C)cc1 | > 80 µM (inactive) |
| N#Cc1ccccc1/C=N/Nc1nc(-c2ccccc2)c2cc(Cl)ccc2n1 | 15.7 µM |
| COc1ccc(Br)cc1-c1nc2c(c(=O)[nH]c(=O)n2Cc2ccccc2)n1C | > 80 µM (inactive) |
| COc1ccc2[nH]c3c(c2c1)CCN1C(=O)C(CC(=O)NC/C=C(\C)CCC=C(C)C)C[C@H](C(=O)N(C(C)C)C(C)C)[C@@]31C (some centres undefined) | inactive |
| CCC[C@@H](CN[C@@H](CNC)[C@H](C)CC)NCC1CCC(C(C)(C)C)CC1 (some centres undefined) | 6.95 µM |
| CCOC(=O)/C=c1\s/c(=C\c2ccc3cc(OC)ccc3c2)c(=O)n1CC(=O)NCC1CCCO1 (centres undefined) | > 80 µM (inactive) |
| O=C1c2cccc3cc(Br)cc(c23)C(=O)N1Nc1ccc(Br)cc1 | inactive |
| O=C(Oc1ccc(F)cc1C(=O)/C=C/c1cccs1)c1cccc([N+](=O)[O-])c1 | inactive |
| Nc1c(C(=O)Nc2ccc(S(=O)(=O)N3CCCC3)cc2)sc2nc3ccc(OC(F)(F)F)cc3cc12 | 4.39 µM |
| CCN(CC)c1ccc(N=Cc2c(O)n(-c3ccc(Cl)cc3)c(=O)[nH]c2=O)cc1 | 20 µM |
| Nc1cccc(-c2nc3cc(S(=O)(=O)c4ccc5oc(-c6cccc(N)c6)nc5c4)ccc3o2)c1 | > 80 µM (inactive) |
| CC1=CC(C)[C@H](/C=N/n2c(=O)[nH]c3c([nH]c4ccc(Br)cc43)c2=O)C(C)C1 (some centres undefined) | inactive |
| CCOC(=O)c1c2ccc(OCC(=O)N/N=C/c3ccc(C)cc3)cc2n2ccccc12 | 17.3 µM |
| CC1C/C(=N/Nc2nc3ccccc3[nH]2)CC(C)(C)C1 (centres undefined) | 14.6 µM |
| COc1cc([C@@H]2c3cc4c(cc3[C@@H](O)[C@H]3COC(=O)[C@H]23)OCO4)cc(OC)c1O[Si](C)(C)C(C)(C)C | 14.6 µM |
| Cn1nnnc1Sc1ncnc2scc(-c3ccc(Cl)cc3)c12 | 17.1 µM |
| CCOC(=O)c1nn(-c2ccc(OCC)cc2)c2nc(-c3ccco3)c(C#N)c(=O)n12 | inactive |

| SMILES | EC50 |
| --- | --- |
| Cc1nc(SCC(=O)Nc2ccc(F)cc2)c(C#N)c(C)c1CC(=O)c1ccc(Br)cc1 | > 80 µM (inactive) |
| Nc1nc(SCc2ccc(Cl)cc2Cl)nc2nc3c(cc12)CCCC3 | > 80 µM (inactive) |
| COc1cc(OC)cc(C(=O)Nc2ccc3nc4n(c(=O)c3c2)CCCCC4)c1 | > 80 µM (inactive) |
| N#C/C(=C\c1ccc(OCc2ccccc2)cc1)C(=O)Nc1nc2c(s1)CCN(Cc1ccccc1)C2 | 13.3 µM |
| CCOC(=O)c1nnc(-c2ccccc2)nc1Oc1ccc(Cl)cc1 | 19.6 µM |
| COc1ccc(OC)c(NC(=O)c2oc3ccccc3c2NC(=O)C2CC2)c1 | > 80 µM (inactive) |
| CCOc1ccccc1NC(=O)Cn1c(=O)n(-c2ccccc2)c(=O)c2oc3ccccc3c21 | > 80 µM (inactive) |
| CC(C)=CCc1c2c(c3occ(-c4ccc(O)cc4)c(=O)c3c1O)C=CC(C)(C)O2 | 16.6 µM |
| Cc1ccc(NC(=O)Cn2c(/C=C/c3ccccc3)nc3ccccc32)cc1C | > 80 µM (inactive) |
| CC(C)(C)C(=O)NC(=S)NNC(=O)c1sc2ccccc2c1Cl | > 80 µM (inactive) |
| CC(C)c1cccc(-c2ccc3c(c2)S(=O)(=O)c2cccc(C(=O)NCc4ccccc4Cl)c2C3=O)c1 | 7.24 µM |
| Cc1ccc(C(C(=O)NCc2ccco2)N(C(=O)CNC(=O)c2cccs2)c2c(C)cc(C)cc2C)cc1 (centres undefined) | inactive |
| CC1CCCCC1N1CN=C(Nc2nc3ccccc3s2)NC1 (centres undefined) | > 80 µM (inactive) |
| CN(C)CC(CCC(CN(C)C)C(O)(c1ccccc1)c1ccccc1)C(O)(c1ccccc1)c1ccccc1 (centres undefined) | 6.06 µM |
| CCOC(=O)c1nnc(-c2ccc(C)cc2)nc1Oc1ccc(Cl)cc1Cl | 13.1 µM |
| N#Cc1ccc(-c2ccc(Cl)cc2)nc1SCC(=O)c1cccc(Cl)c1 | 8.05 µM |
| Cc1ccc2oc(C(Cl)(Cl)Cl)cc(=O)c2c1 | > 80 µM (inactive) |
| O=C(N/N=C/c1ccc(O)c(O)c1)c1ccc(CSc2cccc3cccnc23)cc1 | 15.2 µM |
| Cc1ccc(NC(=O)c2ccc(N/N=C/c3cccc(O)c3)c([N+](=O)[O-])c2)cc1 | 6.64 µM |
| CCN(CC)S(=O)(=O)c1ccc(N/N=C(\C)c2ccc3c(c2)OCO3)c([N+](=O)[O-])c1 | inactive |
| COc1ccc(CCn2c(=S)[nH]c3cc(C(=O)NCc4ccco4)ccc3c2=O)cc1OC | > 80 µM (inactive) |
| CC(C)N=C(NS(=O)(=O)c1ccccc1)C(Cl)(Cl)Cl | > 80 µM (inactive) |
